Inhibition data for 6 compounds are collected here from patent US20260364184A1, “COMPOUND BASED ON OXOISOINDOLINYL-SUBSTITUTED TETRAHYDROPYRIMIDINE-DIONE AND USE THEREOF” (GLUETACS THERAPEUTICS (SHANGHAI) CO., LTD., priority 2023, published 2026).

Like-named read-outs stand apart in the source and are kept apart here.

Experiment [1] has as its system Human lung cancer cell line (H292). In words: Inhibition of H292 cell proliferation (CellTiter luminescent viability). The settings on record: 96 hours; for inhibition at 0.01 µM: H292, 10 nM, read-out: Inhibition Rate at 10 nM (%); for inhibition at 0.5 µM: H292, 500 nM, read-out: Inhibition Rate at 500 nM (%). Format: cell-based. The procedure:
(§1) The tumor cells used herein were cultured in a cell culture medium listed in table 3 at 37 °C in an incubator with 5% CO2. Prior to experimentation, all cell lines used were correctly identified by STR profiling, and tested negative for mycoplasma contamination using a mycoplasma detection kit through routine screenings.
(§2) The IC50 values of the compounds of the present disclosure (including the compounds in Table 1, Table 2, and Examples 1-468) were determined using the CellTiter-Meiluncell Luminescent Cell Viability Assay Kit from Dalian Meilun Biotech Co., Ltd. The detailed procedure is as follows: Tumor cells were seeded in 96-well cell culture plates at the densities specified in Table 4. On the following day, the test compounds of the present disclosure were subjected to serial dilution. The dilution can be performed according to one of the following two methods: • (1) The first dilution method: The test compounds of the present disclosure (including the compounds in Table 1, Table 2, and Examples 1-468) were subjected to 5-fold serial dilutions starting from a highest concentration of 2000 μM, resulting in a total of 9 concentrations from high to low (2000, 400, 80, 16, 3.2, 0.64, 0.128, 0.0256, 0.00512 μM). Subsequently, 0.5 μL of the test compound dilution was transferred into the 96-well plate containing the cells, with each well containing 100 μL of cell culture medium. […] Into the 96-well plate, the diluted test compounds and corresponding detection reagents were added, resulting in final test compound concentrations of 500 nM and 10 nM, respectively. The experimental procedure is described below using the diluted 2 μM test compound as an example.
(§3) 0.5 μL of the aforementioned diluted compound of the present disclosure (including the compounds in Table 1, Table 2, and Examples 1-468) was added to the seeded cells in 100 μL of medium, yielding a final test compound concentration of 10 nM. After the cells were treated with the compounds of the present disclosure for a specified period, the cell viability assay reagent was added to the culture medium according to the kit's instructions to determine cell viability. […] All controls were treated using the same procedure as the compounds of the present disclosure. The growth inhibition curves for the compounds of the present disclosure were plotted using Prism GraphPad software, and the IC50 values were calculated therefrom.

In experiment [2] the test system is Human myeloid monocytic leukemia cell line (MV-4-11). In words: Inhibition of MV-4-11 cell proliferation (CellTiter luminescent viability). The following applies: Homo sapiens, MV4-11, 96 hours; for inhibition at 0.01 µM: MV-4-11, 10 nM, read-out: Inhibition Rate at 10 nM (%); for inhibition at 0.5 µM: MV-4-11, 500 nM, read-out: Inhibition Rate at 500 nM (%). The class given is cell-based. In a few lines:
(§4)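 Cells are seeded in 96-well plates, cultured at 37 °C, 5% CO2, and treated next day with 5-fold serial compound dilutions (stock series from 2000 μM; 0.5 μL into 100 μL medium). Viability is read by CellTiter-Meiluncell luminescence after the set exposure, and IC50 is taken from growth-inhibition curves.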

The test system of experiment [3] is Human diffuse large B-cell lymphoma cell line (TMD8). In words: Inhibition of TMD8 cell proliferation (CellTiter luminescent viability). The class given is cell-based. The following applies: Homo sapiens, TMD8, 96 h, Table IJ3, Tau inhibitor-based. The procedure: as §1, §2, §3
Experiment [4] has as its target T1, human Cereblon WT GST-tagged protein (CRBN) (Homo sapiens, UniProt Q96SW2).
T1 construct: purchased CISBIO 64BDCRBNPEH
In words: CRBN binding by HTRF (Cereblon binding kit). The procedure:
The CEREBLON BINDING kits (specification: 10,000 tests; product number: Catalog #64BDCRBNPEH; CISBIO company) was used to determine the CRBN binding ability of the compounds to be tested through a HTRF method (homogeneous time-resolved fluorescence). The specific methods are as follows: • 1. According to the instructions of the CEREBLON BINDING KITS, serial dilutions were performed for the test compounds of the present disclosure (including the compounds in Table 1, Table 2, and Examples 1-468) and for lenalidomide. Specifically, diluent #9 (1×) solution was used as the diluent, and multiple concentration gradients were set. The dilution operation can be performed according to one of the following two methods: • (1) The first dilution method: The test compounds of the present disclosure (including the compounds in Table 1, Table 2, and Examples 1-468) were subjected to 5-fold serial dilutions starting from a highest concentration of 40 μM, resulting in a total of 7 concentrations from high to low (40, 8, 1.6, 0.32, 0.064, 0.0128, 0.00256 μM). Subsequently, the diluted test compounds and corresponding detection reagents were added to each well of a 96-well plate, resulting in final test compound concentrations of 10, 2, 0.4, 0.08, 0.016, 0.0032, and 0.00064 μM, respectively. • (2) As an alternative, a second dilution method can be used: The test compounds of the present disclosure (including the compounds in Table 1, Table 2, and Examples 1-468) were subjected to 4-fold gradient dilutions starting from a highest concentration of 8 μM, resulting in 2 concentrations (8 μM, 2 μM). Into the 96-well plate, the diluted test compounds and corresponding detection reagents were added, resulting in final test compound concentrations of 2 μM and 0.5 μM, respectively. The experimental procedure is described below using the diluted 8 μM test compound and lenalidomide solutions as examples. • 2. 2.5 μL of the above 8 μM of the tested compounds and lenalidomide solution, as well as the same volume of diluent #9 (1×) solution (solvent control group, Std0) were added to each well of a 96-well plate, respectively. Then, 2.5 μL of human Cereblon WT GST-tagged protein solution was added to each well. Finally, 5 μL of the thoroughly mixed Thalidomide-Re reagent and GST Eu antibody working solution were added to each of the aforementioned wells. The final concentration of the tested compounds and lenalidomide in each well was 2 μM. • 3. The blank control wells were sequentially added with 2.5 μL of diluent #9 (1×) solution, 2.5 μL of PROTAC binding buffer, and 5 μL of thoroughly mixed Thalidomide-Re reagent and GST Eu antibody working solution. • 4. After sealing and incubating the solutions in the aforementioned wells at room temperature for 3 hours, the absorbance values at emission wavelengths of 620 nm and 665 nm were detected by the HTRF method using a Spark microplate reader (V3.1 SP1).
The corresponding CRBN binding inhibition rate was calculated using the following method:
Rcompound=OD 665 nmcompound/OD 620 nmcompound−OD 665 nmcontrol/OD 620 nmcontrol
RStd0=OD 665 nmStd0/OD 620 nmStd0−OD 665 nmcontrol/OD 620 nmcontrol inhibition rate (%)=(1−Rcompound/RStd0)*100
Note: OD 665 nmcompound is the absorbance value of each well of the compounds to be tested of the present disclosure at an emission wavelength of 665 nm. OD 620 nmcompound is the absorbance value of each well of the compounds to be tested of the present disclosure at an emission wavelength of 620 nm. OD 665 nmcontrol is the absorbance value of the blank control well at an emission wavelength of 665 nm. OD 620 nmcontrol is the absorbance value of the blank control well at an emission wavelength of 620 nm. OD 665 nmStd0 is the absorbance value of the solvent control well at an emission wavelength of 665 nm. OD 620 nmStd0 is the absorbance value of the solvent control well at an emission wavelength of 620 nm.

The subject of experiment [5] is Human Multiple myeloma cell line (MM.1S). As to the kind of experiment: Inhibition of MM.1S cell proliferation (CellTiter luminescent viability). The following applies: Homo sapiens, MM1.S, Table IJ1, Tau inhibitor-based, 96 hours. Format: cell-based. In a few lines:
as §4

Where [6] appears, read: NCI-H292, Table IE2, CDK4/6 inhibitor-based.
Where [7] appears, read: Table IE3, CDK4/6 inhibitor-based.
Where [8] appears, read: NCI-H292, Table IM1, CDK9 inhibitor-based.

T1 sequence (Q96SW2 whole entry): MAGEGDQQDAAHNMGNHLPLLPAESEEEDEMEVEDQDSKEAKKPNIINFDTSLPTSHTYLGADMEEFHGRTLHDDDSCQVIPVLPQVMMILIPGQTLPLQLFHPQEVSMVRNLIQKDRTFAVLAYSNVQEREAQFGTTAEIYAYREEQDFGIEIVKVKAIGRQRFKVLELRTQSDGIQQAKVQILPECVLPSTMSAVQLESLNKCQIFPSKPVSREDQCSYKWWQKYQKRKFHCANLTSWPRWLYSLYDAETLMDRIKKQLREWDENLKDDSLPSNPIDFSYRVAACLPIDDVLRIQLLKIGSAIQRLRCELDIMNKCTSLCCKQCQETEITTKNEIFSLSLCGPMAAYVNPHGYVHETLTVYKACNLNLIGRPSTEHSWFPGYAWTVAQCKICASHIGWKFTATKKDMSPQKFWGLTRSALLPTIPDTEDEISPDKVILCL

Usually inhibition stands for the change of the read-out against control, counted positive when it falls. With `CN(C)C(=O)c1cc2cnc(Nc3ccc(N4CCC(CN5CCN(c6cccc7c6C(=O)N(N6CCC(=O)NC6=O)C7=O)CC5)CC4)cn3)nc2n1C1CCCC1` [GT-05202, 7-cyclopentyl-2-((5-(4-((4-(2-(2,4-dioxotetrahydropyrimidin-1(2H)-yl)-1,3-dioxoisoindolin-4-yl)piperazin-1-yl)methyl)piperidin-1-yl)pyridin-2-yl)amino)-N,N-dimethyl-7H-pyrrolo[2,3-d]pyrimidine-6-carboxamide], the inhibition at 0.01 µM was in the range of 35 to 40% in experiment [1] (setting [6]) and 15 to 20% in experiment [2] (setting [7]). Besides, the inhibition at 0.5 µM in experiment [1] (setting [6]) lay within 35 to 40%; in experiment [2] (setting [7]) it was 40 to 60%.

With `CN(C)C(=O)c1cc2cnc(Nc3ccc(N4CCN(Cc5ccc6c(c5)CN(N5CCC(=O)NC5=O)C6=O)CC4)cn3)nc2n1C1CCCC1` [GT-06335, 7-cyclopentyl-2-((5-(4-((2-(2,4-dioxotetrahydropyrimidin-1(2H)-yl)-1-oxoisoindolin-5-yl)methyl)piperazin-1-yl)pyridin-2-yl)amino)-N,N-dimethyl-7H-pyrrolo[2,3-d]pyrimidine-6-carboxamide], in experiment [1] (setting [6]), the inhibition at 0.01 µM was 35 to 40% and the inhibition at 0.5 µM fell in the range of 30 to 35%. In addition, in experiment [2] (setting [7]), the inhibition at 0.01 µM lay within 10 to 15% and the inhibition at 0.5 µM lay within 40 to 60%.

With `Cn1ncc(-c2nc(NC3CCN(CC4CCN(c5ccc6c(c5)C(=O)N(N5CCC(=O)NC5=O)C6=O)CC4)CC3)ncc2Cl)c1CC1CC1` [GT-08346, 5-(4-((4-((5-chloro-4-(5-(cyclopropylmethyl)-1-methyl-1H-pyrazol-4-yl)pyrimidin-2-yl)amino)piperidin-1-yl)methyl)piperidin-1-yl)-2-(2,4-dioxotetrahydropyrimidin-1(2H)-yl)isoindoline-1,3-dione], in experiment [1] (setting [8]), the inhibition at 0.01 µM lay in the range of 0 to 5% and the inhibition at 0.5 µM is 50 to 60%.

Take `N#CC1(CNc2cccc(-c3cc(NC4CCN(CC5CCN(c6ccc7c(c6)C(=O)N(N6CCC(=O)NC6=O)C7=O)CC5)CC4)ncc3Cl)n2)CCOCC1` [GT-08348, 4-(((5′-chloro-2′-((1-((1-(2-(2,4-dioxotetrahydropyrimidin-1(2H)-yl)-1,3-dioxoisoindolin-5-yl)piperidin-4-yl)methyl)piperidin-4-yl)amino)-[2,4′-bipyridin]-6-yl)amino)methyl)tetrahydro-2H-pyran-4-carbonitrile]: in experiment [1] (setting [8]), the inhibition at 0.01 µM is -5 to 0% and the inhibition at 0.5 µM is 30 to 40%.

For `N#CC1(CNc2cccc(-c3cc(NC4CCN(CC5CCN(c6cccc7c6C(=O)N(N6CCC(=O)NC6=O)C7=O)CC5)CC4)ncc3Cl)n2)CCOCC1` [GT-08349, 4-(((5′-chloro-2′-((1-((1-(2-(2,4-dioxotetrahydropyrimidin-1(2H)-yl)-1,3-dioxoisoindolin-4-yl)piperidin-4-yl)methyl)piperidin-4-yl)amino)-[2,4′-bipyridin]-6-yl)amino)methyl)tetrahydro-2H-pyran-4-carbonitrile], in experiment [1] (setting [8]), the inhibition at 0.01 µM is 15 to 20% and the inhibition at 0.5 µM fell in the range of 20 to 30%.

Take `Cn1c2ccncc2c2ccc(-c3cnc(N4CCN(Cc5ccc6c(c5)CN(N5CCC(=O)NC5=O)C6=O)CC4)c(C(F)(F)F)c3)cc21` [GT-08539, 1-(5-((4-(5-(5-methyl-5H-pyrido[4,3-b]indol-7-yl)-3-(trifluoromethyl)pyridin-2-yl)piperazin-1-yl)methyl)-1-oxoisoindolin-2-yl)dihydropyrimidine-2,4 (1H,3H)-dione]: the inhibition at 0.01 µM in experiment [3] (TMD8, 10 nM, read-out: Inhibition Rate at 10 nM (%)) lay in the range of 20 to 30%; in experiment [2] (Table IJ2, Tau inhibitor-based), 30 to 40%; in experiment [5] (10 nM, read-out: Inhibition Rate at 10 nM (%)), 20 to 30%. Besides, the inhibition at 0.5 µM lay in the range of 60 to 70% in experiment [3] (TMD8, 500 nM, read-out: Inhibition Rate at 500 nM (%)); 50 to 60% in experiment [2] (Table IJ2, Tau inhibitor-based); 20 to 30% in experiment [4] (0.5 μM, read-out: Inhibition Rate at 0.5 μM (%)); 60 to 70% in experiment [5] (500 nM, read-out: Inhibition Rate at 500 nM (%)). For the same compound, in experiment [4] (2 μM, read-out: Inhibition Rate at 2 μM (%)), the inhibition at 2 µM fell in the range of 60 to 80%.
